Data from patent US10750743B2, “Pyridazinone herbicides” (E.I. DU PONT DE NEMOURS AND COMPANY, priority 2015, dated 2020).

What was measured:
Type in all cases: in vivo
[1] = system: barnyardgrass (Echinochloa crus-galli); experiment: Test A postemergence application, visual injury rating; settings: 0 to 100 scale, 0 no effect, 100 complete control
Procedure, shortened: (§1)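 Compounds in a surfactant-containing solvent were applied as a directed soil spray preemergence, or postemergence to plants 2-10 cm tall at the one- to two-leaf stage, in loam-sand blend. After about 10 d in the greenhouse, injury was rated visually against untreated controls on a 0-100 scale (100 = complete control).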

kochia (Kochia scoparia) [2] = experiment: as above; settings: 0 to 100 scale, 0 no effect, 100 complete control
Procedure, shortened: as §1

[3] = system: pigweed (Amaranthus retroflexus); experiment: as above; settings: 0 to 100 scale, 0 no effect, 100 complete control
Procedure, shortened: as §1

[4] = system: galium (catchweed bedstraw, Galium aparine); experiment: as above; settings: 0 to 100 scale, 0 no effect, 100 complete control
Procedure, shortened: as §1

[5] = system: foxtail, giant (giant foxtail, Setaria faberii); experiment: as above; settings: 0 to 100 scale, 0 no effect, 100 complete control
Procedure, shortened: as §1

[6] = system: wheat (Triticum aestivum); experiment: as above; settings: 0 to 100 scale, 0 no effect, 100 complete control
Procedure, shortened: as §1

[7] = system: ryegrass, It. (Italian ryegrass, Lolium multiflorum); experiment: as above; settings: 0 to 100 scale, 0 no effect, 100 complete control
Procedure, shortened: as §1

[8] = system: blackgrass (Alopecurus myosuroides); experiment: as above; settings: 0 to 100 scale, 0 no effect, 100 complete control
Procedure, shortened: as §1

[9] = system: ragweed (common ragweed, Ambrosia elatior); experiment: as above; settings: 0 to 100 scale, 0 no effect, 100 complete control
Procedure, shortened: as §1

corn (Zea mays) = experiment: as above; settings: 0 to 100 scale, 0 no effect, 100 complete control
Procedure, shortened: as §1

[10] = system: ducksalad (Heteranthera limosa); experiment: Test B flooded paddy test, visual rating; settings: Flood, 250 g ai/ha, applied to paddy water, rated after 13 to 15 d
Procedure, shortened: (§2)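 Plants grown to the 2-leaf stage. At treatment, pots were flooded to 3 cm above the soil, compound was applied directly to the paddy water, and that depth was held throughout. After 13 to 15 d in the greenhouse, response was rated visually against controls on a 0 (no effect) to 100 (complete control) scale.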

[11] = system: barnyardgrass (Echinochloa crus-galli); experiment: Test B flooded paddy test, visual rating; settings: Flood, 250 g ai/ha, applied to paddy water, rated after 13 to 15 d
Procedure, shortened: as §2

[12] = system: sedge, umbrella (small-flower umbrella sedge, Cyperus difformis); experiment: Test B flooded paddy test, visual rating; settings: Flood, 250 g ai/ha, applied to paddy water, rated after 13 to 15 d
Procedure, shortened: as §2

rice (Oryza sativa) = experiment: Test B flooded paddy test, visual rating; settings: Flood, 250 g ai/ha, applied to paddy water, rated after 13 to 15 d
Procedure, shortened: as §2

[13] = system: barnyardgrass (Echinochloa crus-galli); experiment: Test A preemergence, directed soil spray, visual injury rating; settings: 0 is no effect, 100 is complete control
Procedure, shortened: as §1

kochia (Kochia scoparia) [14] = experiment: as above; settings: 0 is no effect, 100 is complete control
Procedure, shortened: as §1

[15] = system: pigweed (Amaranthus retroflexus); experiment: as above; settings: 0 is no effect, 100 is complete control
Procedure, shortened: as §1

[16] = system: foxtail, giant (giant foxtail, Setaria faberii); experiment: as above; settings: 0 is no effect, 100 is complete control
Procedure, shortened: as §1

[17] = system: ryegrass, It. (Italian ryegrass, Lolium multiflorum); experiment: as above; settings: 0 is no effect, 100 is complete control
Procedure, shortened: as §1

[18] = system: ragweed (common ragweed, Ambrosia elatior); experiment: as above; settings: 0 is no effect, 100 is complete control
Procedure, shortened: as §1

Compound | Barnyardgrass plant response rating ([1]; 125 g ai/ha) | Kochia plant response rating (kochia (Kochia scoparia) [2]; 125 g ai/ha) | Pigweed plant response rating ([3]; 125 g ai/ha) | Galium plant response rating ([4]; 125 g ai/ha) | Foxtail, Giant plant response rating ([5]; 125 g ai/ha) | Wheat plant response rating ([6]; 125 g ai/ha) | Ryegrass, It. plant response rating ([7]; 125 g ai/ha) | Blackgrass plant response rating ([8]; 125 g ai/ha) | Ragweed plant response rating ([9]; 125 g ai/ha) | Corn plant response rating (corn (Zea mays); 125 g ai/ha) | Ducksalad plant response rating (0 to 100 scale, 0 is no effect, 100 is complete control) [10] | Barnyardgrass plant response rating (0 to 100 scale, 0 is no effect, 100 is complete control) [11] | Sedge, Umbrella plant response rating (0 to 100 scale, 0 is no effect, 100 is complete control) [12] | Rice plant response rating (0 to 100 scale, 0 is no effect, 100 is complete control) (rice (Oryza sativa)) | Plant response rating (0 to 100 scale), Barnyardgrass ([13]; 125 g ai/ha) | Plant response rating (0 to 100 scale), Kochia (kochia (Kochia scoparia) [14]; 125 g ai/ha) | Plant response rating (0 to 100 scale), Pigweed ([15]; 125 g ai/ha) | Plant response rating (0 to 100 scale), Foxtail, Giant ([16]; 125 g ai/ha) | Plant response rating (0 to 100 scale), Ryegrass, It. ([17]; 125 g ai/ha) | Plant response rating (0 to 100 scale), Ragweed ([18]; 125 g ai/ha) | also measured
CC(=O)Oc1c(C)nn(C)c(=O)c1-c1ccc(Cl)c2ccsc12 [Compound 51] | 10 | 90 | 60 | 100 | 0 | 0 | 100 | 10 | 50 | 0 | 0 | 0 | 0 | 0 | 20 | 20 | 60 | 0 | 100 | 0 | Barnyardgrass plant response rating ([1]; 31 g ai/ha): 0; Kochia plant response rating (kochia (Kochia scoparia) [2]; 31 g ai/ha): 70; Pigweed plant response rating ([3]; 31 g ai/ha): 50; Galium plant response rating ([4]; 31 g ai/ha): 100; Foxtail, Giant plant response rating ([5]; 31 g ai/ha): 0; Wheat plant response rating ([6]; 31 g ai/ha): 0; Ryegrass, It. plant response rating ([7]; 31 g ai/ha): 70; Blackgrass plant response rating ([8]; 31 g ai/ha): 0; Ragweed plant response rating ([9]; 31 g ai/ha): 0; Corn plant response rating (corn (Zea mays); 31 g ai/ha): 0; Plant response rating (0 to 100 scale), Barnyardgrass ([13]; 31 g ai/ha): 0; Plant response rating (0 to 100 scale), Kochia (kochia (Kochia scoparia) [14]; 31 g ai/ha): 0; Plant response rating (0 to 100 scale), Pigweed ([15]; 31 g ai/ha): 0; Plant response rating (0 to 100 scale), Foxtail, Giant ([16]; 31 g ai/ha): 0; Plant response rating (0 to 100 scale), Ryegrass, It. ([17]; 31 g ai/ha): 60; Plant response rating (0 to 100 scale), Ragweed ([18]; 31 g ai/ha): 0
CCC(=O)Oc1c(C)nn(C)c(=O)c1-c1c(C)ccc2sccc12 [Compound 31] | 10 | 90 | 90 | 90 | 10 | 20 | 100 | 50 | 70 | 20 | 0 | 0 | 0 | 0 | 10 | 20 | 90 | 10 | 90 | 20 | Barnyardgrass plant response rating ([1]; 500 g ai/ha): 60; Kochia plant response rating (kochia (Kochia scoparia) [2]; 500 g ai/ha): 100; Pigweed plant response rating ([3]; 500 g ai/ha): 90; Galium plant response rating ([4]; 500 g ai/ha): 100; Foxtail, Giant plant response rating ([5]; 500 g ai/ha): 80; Wheat plant response rating ([6]; 500 g ai/ha): 30; Ryegrass, It. plant response rating ([7]; 500 g ai/ha): 100; Blackgrass plant response rating ([8]; 500 g ai/ha): 60; Ragweed plant response rating ([9]; 500 g ai/ha): 80; Corn plant response rating (corn (Zea mays); 500 g ai/ha): 40; Plant response rating (0 to 100 scale), Barnyardgrass ([13]; 500 g ai/ha): 90; Plant response rating (0 to 100 scale), Kochia (kochia (Kochia scoparia) [14]; 500 g ai/ha): 90; Plant response rating (0 to 100 scale), Pigweed ([15]; 500 g ai/ha): 100; Plant response rating (0 to 100 scale), Foxtail, Giant ([16]; 500 g ai/ha): 90; Plant response rating (0 to 100 scale), Ryegrass, It. ([17]; 500 g ai/ha): 100; Plant response rating (0 to 100 scale), Ragweed ([18]; 500 g ai/ha): 90
CCC(=O)Oc1c(C)nn(C)c(=O)c1-c1ccc(Cl)c2oc(C)cc12 [Compound 52] | 0 | 0 | 60 | 90 | 0 | 0 | 40 | 0 | 20 | 0 | 0 | 0 | 0 | 0 | 0 | 0 | 70 | 0 | 50 | 0 | Barnyardgrass plant response rating ([1]; 500 g ai/ha): 10; Kochia plant response rating (kochia (Kochia scoparia) [2]; 500 g ai/ha): 20; Pigweed plant response rating ([3]; 500 g ai/ha): 60; Galium plant response rating ([4]; 500 g ai/ha): 90; Foxtail, Giant plant response rating ([5]; 500 g ai/ha): 0; Wheat plant response rating ([6]; 500 g ai/ha): 0; Ryegrass, It. plant response rating ([7]; 500 g ai/ha): 60; Blackgrass plant response rating ([8]; 500 g ai/ha): 10; Ragweed plant response rating ([9]; 500 g ai/ha): 60; Corn plant response rating (corn (Zea mays); 500 g ai/ha): 0; Plant response rating (0 to 100 scale), Barnyardgrass ([13]; 500 g ai/ha): 0; Plant response rating (0 to 100 scale), Kochia (kochia (Kochia scoparia) [14]; 500 g ai/ha): 0; Plant response rating (0 to 100 scale), Pigweed ([15]; 500 g ai/ha): 100; Plant response rating (0 to 100 scale), Foxtail, Giant ([16]; 500 g ai/ha): 0; Plant response rating (0 to 100 scale), Ryegrass, It. ([17]; 500 g ai/ha): 70; Plant response rating (0 to 100 scale), Ragweed ([18]; 500 g ai/ha): 0
